Entries after “also recorded” stand apart in the source; their conditions may differ.
Assays:
[1] = system: HET or KO keratinocyte sheets; experiment: Monolayer mechanical dissociation assay, SERCA2-deficient keratinocytes; type: cell-based, human; conditions: HET or KO monolayers; trametinib 1 μM 48 hours; PD98059 20 μM 24 hours
Experimental: (§1) Dispase-based mechanical dissociation assays were carried out as described (Simpson C L, et al. Am J Pathol. 2010; 177(6): p. 2921-37). Keratinocytes were plated at a density of 1×10^6 cells per well of 6-well cell culture dishes. Upon reaching confluence, the calcium concentration of the medium was adjusted to 1.3 mM. Vehicle control (DMSO) or chemical inhibitors were added at the following concentrations: […] After 24 to 72 hours, monolayers were washed with PBS and then incubated with 500 μL dispase (5 U/ml) in Hank's balanced salt solution (Stemcell Technologies of Vancouver, CA, Cat. #07913) for 30 minutes at 37° C. Next, 4.5 ml PBS was added to the wells and all liquid plus released monolayers were transferred into 15 mL conical tubes, which were placed together in a rack and inverted 5-10 times to induce mechanical stress. Monolayer fragments were transferred back into 6-well cell culture plates and imaged with a 12-megapixel digital camera. Fragments were counted in Fiji.

[2] = system: NHEK monolayers; experiment: Monolayer mechanical dissociation assay, SERCA2 inhibition with thapsigargin; type: cell-based, human; conditions: 24 hours; for integrity of epithelial sheets despite SERCA2 inhibition: with 1 μM TG, 1 μM Tram, 10 μM U0126, 20 μM PD98059, 1 μM dabrafenib
Experimental: as §1

[3] = system: organotypic epidermis grown from NHEKs; experiment: Histology (H&E) of organotypic epidermis treated with TG; type: cell-based, human
[4] = system: NHEK monolayers; experiment: Monolayer mechanical dissociation assay, B-RAF inhibitor model of Grover disease; type: cell-based, human; conditions: co-treatment with Dab or Vem; trametinib 1 μM, U0126 10 μM, PD98059 20 μM; 24 h
Experimental: Dispase-based mechanical dissociation assays were carried out as described (70). Keratinocytes were plated at a density of 1×10^6 cells per well of 6-well cell culture dishes. Upon reaching confluence, the cells were switched into E-medium. Vehicle control (DMSO) or chemical inhibitors were added at the following concentrations: Dabrafenib (1 μM), vemurafenib (10 μM) trametinib (1 μM), U0126 (10 μM), or PD98059 (20 μM). After 24 h, monolayers were washed with PBS and then incubated with 500 μL dispase (5 U/ml) in Hank's balanced salt solution (Stemcell Technologies of Vancouver, Canada, Cat. #07913) for 30 minutes at 37° C. Next, 4.5 mL PBS was added to the wells and all liquid plus released monolayers were transferred into 15 mL conical tubes, which were placed together in a rack and inverted 1-10 times to induce mechanical stress. Monolayer fragments were transferred back into 6-well cell culture plates and imaged with a 12-megapixel digital camera. Fragments were counted in Fiji.

[5] = system: HET cells (SERCA2-depleted keratinocytes, THEKs); experiment: RT-qPCR of keratinocyte mRNA transcripts; type: cell-based, human; conditions: HET cells in E-medium 24 hours; trametinib 1 μM, U0126 10 μM, PD184352 10 μM
Experimental: THEKs were seeded at a density of 1×10^6 cells per well of 6-well cell culture dishes in complete KSFM. Upon reaching confluence, KSFM was replaced with E-medium containing vehicle control (DMSO) or inhibitors at the following concentrations: Trametinib (1 μM), U0126 (10 μM), or PD184352 (10 μM). At the indicated time points, cell culture medium was removed and cells were washed once with PBS. RNA was extracted using the NucleoSpin RNA Plus Kit (Machery-Nagel of Duren, Germany) followed by reverse-transcription with the iScript cDNA synthesis kit (Bio-Rad of Hercules, CA) according to the manufacturer's instructions. Copy DNAs, also referred to as complementary DNAs (cDNAs) were diluted 5-fold and 2 μL of the resulting cDNAs were used for each 10 μL quantitative polymerase chain reaction (qPCR) assay. Real-time qPCR assays were carried out using the TaqMan Gene expression master mix (Applied Biosystems of Waltham, MA) according to the manufacturer's protocol. Pre-designed TaqMan probes from Thermo-Fisher were used for quantification of human Actb (Hs01060665_g1), Krt1 (Hs00196158_m1), Krt10 (Hs00166289_m1), Krt14 (Hs00265033_m1), Dsg1 (Hs00355084_m1), Alox12b (Hs00153961_m1), Alox15b (Hs00153988_m1), Ifi27 (Hs01086373_g1), Trpv3 (Hs00376854_m1), Trpv4 (Hs01099348_m1), or Notch1 (Hs01062014_m1). The housekeeping gene Actb was used as an endogenous control and mRNA fold changes were determined using the 2^(−ΔΔCt) method.

[6] = system: NHEKs; experiment: KRT10 immunostaining of TG-treated keratinocytes; type: cell-based, human; conditions: 1 μM TG alone, 48 hours
Experimental: Keratinocytes were grown to confluence in 35 mm, glass-bottom cell culture dishes (MatTek of Ashland, MA, #P35G-1.5-20-C). For staining keratins and desmosomal proteins, cells were fixed in ice-cold 100% methanol at −20° C. for 2 minutes, allowed to dry, then re-hydrated in PBS. For staining other proteins, cells were fixed in 4% paraformaldehyde for 10 minutes at 37° C. Fixed cells were then incubated with blocking buffer [0.5% (w/v) bovine serum albumin (BSA, Sigma), 10% (w/v) normal goat serum (NGS, Sigma) in PBS] for 30 minutes at 37° C. Cells were then washed with PBS. Primary antibodies were diluted in 0.5% (w/v) BSA in PBS and incubated on the cells overnight at 4° C. Primary antibody dilutions were as follows: rabbit anti-SERCA2 (1:200), rabbit anti-cytokeratin 10 (1:2,000), mouse anti-Desmoglein 1 (1:100), mouse anti-Desmoglein 2 (1:100), mouse anti-Desmoglein 3 (1:100), mouse anti-Plakoglobin (1:100), rabbit anti-PERK1/2 (1:400), and mouse anti-ERK1/2 (1:400). Cells were washed three times with PBS, then incubated with species-specific secondary antibodies diluted at 1:300 (with or without Hoechst at 1:500) in 0.5% (w/v) BSA in PBS for 30 min at 37° C. […]
Fluorescence microscopy images were analyzed using Fiji software. Quantification of fluorescence intensity was performed in a blinded manner using non-visibly identifiable microscopy images. […]

[7] = system: organotypic cultures of NHEKs; experiment: Immunostaining of KRT10 and pERK in organotypic epidermis treated with TG; type: cell-based, human; conditions: 1 μM TG, 48 hours
Experimental: Paraffin-embedded formalin-fixed tissue cross-sections on glass slides were incubated at 65° C. for 2 h. Sections were prepared for staining by immersion in 3 baths of xylenes (Thermo-Fisher) for 5 min each, followed by 3 baths of 95% ethanol for 5 min each, then 70% ethanol for 5 minutes, and finally 3 baths of PBS for 5 min each. Slides were then submerged in antigen retrieval solution [0.1 M sodium citrate (pH 6.0) with 0.05% (v/v) Tween-20] and heated to 95° C. for 15 min. Slides were allowed to cool to room temperature and then washed with PBS. Tissue sections were encircled with a hydrophobic barrier using a PAP pen. Tissue sections were incubated in blocking buffer [0.5% (w/v) BSA, 10% (v/v) NGS in PBS] for 30 minutes at 37° C. in a humidified chamber. […]
Fluorescence images of immunostained tissue sections were captured by SDC microscopy as above and analyzed using Fiji. Quantification of fluorescence intensity was performed in using non-visibly labeled images from immunostained tissue cross-sections. The Fiji “Measure” function was used to calculate the mean intensity of the fluorescence signal and the mean background fluorescence intensity, which was subtracted from each value. The net fluorescence intensity was averaged across multiple non-overlapping HPF and the values from control cultures were normalized to an average value of 1.

[8] = B-RAF inhibitor monotherapy for cancer (Carlos G, et al. 2015); cited from earlier work

Compound | integrity of epithelial sheets despite SERCA2 inhibition [2] | integrity of keratinocyte sheets despite B-RAF inhibition [4] | DSG1 mRNA expression [5] | KRT1 mRNA expression [5] | KRT10 mRNA expression [5] | KRT14 mRNA levels [5] | further results
COc1cccc(-c2cc(=O)c3ccccc3o2)c1N [PD98059] | restored | comparably rescued cell cohesion |  |  |  |  | resistance of keratinocyte sheets to mechanical stress (number of fragments) [1]: similarly rescued cohesion; effect on TG-induced loss of keratinocyte cohesion ([3]; 1 μM TG plus 20 μM PD98059 or 1 μM trametinib): mitigated; also recorded: improved keratinocyte cohesion; effect on TG-induced retention of nuclei in cornified layers / cornification ([3]; 1 μM TG plus 20 μM PD98059 or 1 μM trametinib, 48 hours): reduced TG-induced retention of nuclei in the cornified layers; also recorded: normalization of cornification
O=C(NOCC1CC1)c1ccc(F)c(F)c1Nc1ccc(I)cc1Cl [PD184352] |  |  | sufficient to augment expression | sufficient to augment expression | sufficient to augment expression | did not significantly alter | 
C/C=C(/C)C(=O)O[C@H]1C(C)=C2[C@H]([C@@H]1OC(=O)CCCCCCC)[C@@](C)(OC(C)=O)C[C@H](OC(=O)CCC)[C@@]1(O)[C@H]2OC(=O)[C@@]1(C)O [TG, thapsigargin] |  |  |  |  |  |  | epithelial sheet fragmentation ([2]; 1 μM TG alone): significant increase in epithelial sheet fragmentation; also recorded: readily fragmented; KRT10 up-regulation by immunostaining [6]: suppressed their ability to up-regulate KRT10; keratinocyte cohesion in organotypic epidermis ([3]; 1 μM TG alone, 48 hours): disrupted keratinocyte cohesion most notably between basal and suprabasal cell layers; also recorded: loss of keratinocyte cohesion; also recorded: separation between basal and suprabasal layers; retention of nuclei in cornified layers ([3]; 1 μM TG alone, 48 hours): retention of nuclei in the cornified layers; KRT10 immunostaining in organotypic epidermis [7]: reduction in KRT10; pERK (ERK activation) in organotypic epidermis [7]: ERK hyper-activation
N#CC(=C(/N)Sc1ccccc1N)/C(C#N)=C(\N)Sc1ccccc1N [U0126] | restored | comparably rescued cell cohesion | sufficient to augment expression | sufficient to augment expression | sufficient to augment expression | did not significantly alter | 
CCCS(=O)(=O)Nc1ccc(F)c(C(=O)c2c[nH]c3ncc(-c4ccc(Cl)cc4)cc23)c1F [vemurafenib] |  |  |  |  |  |  | patients in whom GD was seen [8]: 38.9%
